Source: PubChem BioAssay (NCI)
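Abbreviation: GI50, concentration required for 50% inhibition of growth. The concentration for full growth arrest is given as TGI.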

Tests used:
Assay in all cases: NCI anticancer screen, dose series, 384-well format
[1] = system: NCI-H23 lung
[2] = system: NCI-H322M lung
[3] = system: NCI-H460 NSCLC
[4] = system: NCI-H522 lung
[5] = system: NCI/ADR-RES ovarian
[6] = system: OVCAR-3 ovarian
[7] = system: OVCAR-4 ovarian
[8] = system: OVCAR-5 ovarian
[9] = system: OVCAR-8 ovarian
[10] = system: PC-3 prostate
[11] = system: RPMI-8226 leukemia
[12] = system: RXF 393 renal
[13] = system: SF-268 CNS
[14] = system: SF-295 CNS
[15] = system: SF-539 CNS
[16] = system: SK-MEL-28 melanoma
[17] = system: SK-MEL-5 melanoma
[18] = system: SK-OV-3 ovarian
[19] = system: SN12C renal
[20] = system: SNB-19 CNS
[21] = system: SNB-75 CNS
[22] = system: SR leukemia
[23] = system: T-47D breast
[24] = system: TK-10 renal
[25] = system: U251 glioblastoma
[26] = system: UACC-257 melanoma
[27] = system: UACC-62 melanoma

CCc1c[nH]c2ncnc(N3CC[C@](N)(CNC(=O)c4ccc(F)cc4F)C3)c12
GI50 [1]: 13.8 µM | TGI [1]: > 100 µM | GI50 [2]: 7.12 µM | TGI [2]: > 100 µM | GI50 [3]: 536 nM | TGI [3]: 20.2 µM | GI50 [4]: 11 µM | TGI [4]: 35.8 µM | GI50 [5]: 12.3 µM | TGI [5]: > 100 µM | GI50 [6]: 8.07 µM | TGI [6]: > 100 µM | GI50 [7]: 32 µM | TGI [7]: > 100 µM | GI50 [8]: 4.4 µM | TGI [8]: 55.8 µM | GI50 [9]: 15 µM | TGI [9]: > 100 µM | GI50 [10]: 446 nM | TGI [10]: 21.8 µM | GI50 [11]: 3.38 µM | TGI [11]: 30.2 µM | GI50 [12]: 3.34 µM | TGI [12]: > 100 µM | GI50 [13]: > 100 µM | TGI [13]: > 100 µM | GI50 [14]: 1950 nM | TGI [14]: > 100 µM | GI50 [15]: 442 nM | TGI [15]: > 100 µM | GI50 [16]: 9.04 µM | TGI [16]: > 100 µM | GI50 [17]: 12.9 µM | TGI [17]: 28.9 µM | GI50 [18]: 892 nM | TGI [18]: > 100 µM | GI50 [19]: 7.5 µM | TGI [19]: > 100 µM | GI50 [20]: 3.49 µM | TGI [20]: > 100 µM | GI50 [21]: 626 nM | TGI [21]: > 100 µM | GI50 [22]: 60.3 nM | TGI [22]: 1980 nM | GI50 [23]: 343 nM | TGI [23]: > 100 µM | GI50 [24]: 1260 nM | TGI [24]: 45.3 µM | GI50 [25]: 2790 nM | TGI [25]: > 100 µM | GI50 [26]: 7.7 µM | TGI [26]: 31.1 µM | GI50 [27]: 4.26 µM | TGI [27]: 25.1 µM
